Assay results from patent US7282342B2, “Methods for detecting weakly immunogenic analytes” (Neuren Pharmaceuticals Ltd., priority 2001, dated 2007).
Residues, ends and D or L forms follow the SMILES beside them.

System: CK5 antibody
Experiment: modified double antibody radioimmunoassay, displacement of I125-labeled Bolton and Hunter derivatized GPE
Type: binding, rabbit
Settings: test substances Bolton and Hunter derivatized; CK5 at 1:18,000

Molecule | cross-reactivity with CK5 antibody
O=C(O)CC[C@H](NC(=O)[C@@H]1CCCN1)C(=O)O [PE, L-prolyl-L-glutamic acid] (H-Pro-Glu-OH) | does not cross-react significantly
N[C@@H](CCC(=O)O)C(=O)O [glutamic acid] | does not cross-react significantly
NCC(=O)O [glycine] | does not cross-react significantly
IGF-1: insulin-like growth factor-1, the GPE parent molecule | does not cross-react significantly
NC(N)=O [urea] | does not cross-react significantly
O=C(O)[C@@H]1CCCN1 [proline] | does not cross-react significantly
NCC(=O)N1CCC[C@H]1C(=O)O [GP, glycyl-L-proline] (H-Gly-Pro-OH) | does not cross-react significantly

System: CK5 antibody
Experiment: standard double antibody radioimmunoassay, displacement of I125-labeled YGPE
Type: binding, rabbit
Settings: CK5 diluted 1:600; I125-labeled YGPE tracer
Experimental: The CK5 antibody was characterized using a standard double antibody radioimmunoassay technique. Tubes containing either 100 μL 0.02 M phosphate buffered saline assay buffer or peptide (GPE, YGPE (SEQ ID NO:4), KYFGGPE (SEQ ID NO:5), or IGF-1) dissolved in assay buffer at various concentrations were preincubated with CK5 antibody (diluted at 1:600) for 24 h at 4° C. I^125-labeled YGPE (10,000 cpm) was then added to the tubes. After a further 48 h incubation at 4° C., the bound and free GPE were separated by adding donkey anti-rabbit serum (1:100). The tubes were incubated with this second antibody overnight at 4° C. before centrifugation (3,200 rpm for 30 min), after which the supernatant was aspirated, and the precipitate counted in a gamma counter. One antibody, CK5, was identified. […] Unlabeled GPE was able to displace I^125-labeled YGPE with an ED50 of approximately 200 ng/tube.

Molecule | cross-reactivity with CK5 antibody
IGF-1: insulin-like growth factor-1, the GPE parent molecule | does not cross-react significantly
